Measurements reported in ChEMBL document CHEMBL1201862, “PubChem BioAssay data set” (2004).
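Dose response: 5 concentrations. Exposure: 48 h. Format: 96-well plates. Endpoint: linear interpolation; highest concentration if not reached. GI50 is the concentration that inhibits growth by half.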 Active and inactive are the calls of the source. No stated cut-off is given here; in the data, active = GI50 up to about 1.1 µM and inactive = higher.

Experiments:
Experiment in all cases: DTP human tumour cell line panel, 48 h
Hs-578T = system: Hs-578T
CAKI-1 = system: CAKI-1
NCI-H226 = system: NCI-H226
BT-549 = system: BT-549
NCI/ADR-RES = system: NCI/ADR-RES
SN12C = system: SN12C
SK-MEL-28 = system: SK-MEL-28
KM12 = system: KM12
PC-3 = system: PC-3
T47D = system: T47D
A498 = system: A498
SF-295 = system: SF-295
MCF7 = system: MCF7
UACC-257 = system: UACC-257
LOX IMVI = system: LOX IMVI
SK-OV-3 = system: SK-OV-3
SK-MEL-5 = system: SK-MEL-5
SK-MEL-2 = system: SK-MEL-2
HCC 2998 = system: HCC 2998
OVCAR-8 = system: OVCAR-8
HOP-92 = system: HOP-92
MDA-N = system: MDA-N
OVCAR-4 = system: OVCAR-4
NCI-H460 = system: NCI-H460
CCRF-CEM = system: CCRF-CEM
UACC-62 = system: UACC-62
ACHN = system: ACHN
UO-31 = system: UO-31
EKVX = system: EKVX
OVCAR-3 = system: OVCAR-3
RXF 393 = system: RXF 393
K562 = system: K562
SW-620 = system: SW-620
NCI-H23 = system: NCI-H23
OVCAR-5 = system: OVCAR-5
DU-145 = system: DU-145
U-251 = system: U-251
A549 = system: A549
MDA-MB-435 = system: MDA-MB-435
HCT-116 = system: HCT-116
HT-29 = system: HT-29
HOP-62 = system: HOP-62
MOLT-4 = system: MOLT-4
786-0 = system: 786-0
TK-10 = system: TK-10
HL-60 = system: HL-60
IGROV-1 = system: IGROV-1
M14 = system: M14
NCI-H522 = system: NCI-H522
HCT-15 = system: HCT-15
SNB-19 = system: SNB-19
MDA-MB-231 = system: MDA-MB-231
SF-268 = system: SF-268
COLO 205 = system: COLO 205
SNB-75 = system: SNB-75
RPMI-8226 = system: RPMI-8226
SF-539 = system: SF-539
Malme-3M = system: Malme-3M

## O=c1[nH]c2c(C(F)(F)F)c(Cl)c(-c3ccccc3)nc2o1
Hs-578T
  GI50: 55.6 µM (inactive)
CAKI-1
  GI50: 34.4 µM (inactive)
NCI-H226
  GI50: 30.3 µM (inactive)
BT-549
  GI50: 15.7 µM (inactive)
NCI/ADR-RES
  GI50: 16.6 µM (inactive)
SN12C
  GI50: 10.9 µM (inactive)
SK-MEL-28
  GI50: 22.8 µM (inactive)
KM12
  GI50: 26.7 µM (inactive)
PC-3
  GI50: 23.2 µM (inactive)
T47D
  GI50: 20.2 µM (inactive)
A498
  GI50: 57.8 µM (inactive)
SF-295
  GI50: 13.3 µM (inactive)
MCF7
  GI50: 45.6 µM (inactive)
UACC-257
  GI50: 14.1 µM (inactive)
LOX IMVI
  GI50: 27.1 µM (inactive)
SK-OV-3
  GI50: 23.6 µM (inactive)
SK-MEL-5
  GI50: 4.83 µM (inactive)
SK-MEL-2
  GI50: 18.5 µM (inactive)
HCC 2998
  GI50: 25.5 µM (inactive)
OVCAR-8
  GI50: 31.3 µM (inactive)
HOP-92
  GI50: 9.33 µM (inactive)
MDA-N
  GI50: 14.8 µM (inactive)
OVCAR-4
  GI50: 19.6 µM (inactive)
NCI-H460
  GI50: 23.9 µM (inactive)
CCRF-CEM
  GI50: 10 µM (inactive)
UACC-62
  GI50: 75.5 µM (inactive)
ACHN
  GI50: 65.5 µM (inactive)
UO-31
  GI50: 12.5 µM (inactive)
EKVX
  GI50: 14.8 µM (inactive)
OVCAR-3
  GI50: 17.3 µM (inactive)
RXF 393
  GI50: 21.5 µM (inactive)
K562
  GI50: 27.2 µM (inactive)
SW-620
  GI50: 33.8 µM (inactive)
NCI-H23
  GI50: 15.3 µM (inactive)
OVCAR-5
  GI50: 11.8 µM (inactive)
DU-145
  GI50: 38.1 µM (inactive)
U-251
  GI50: 19.3 µM (inactive)
A549
  GI50: 19.8 µM (inactive)
MDA-MB-435
  GI50: 28.3 µM (inactive)
HCT-116
  GI50: 16.1 µM (inactive)
HT-29
  GI50: 23.3 µM (inactive)
HOP-62
  GI50: 35.4 µM (inactive)
MOLT-4
  GI50: 13.7 µM (inactive)
786-0
  GI50: 24.4 µM (inactive)
TK-10
  GI50: 31.2 µM (inactive)
HL-60
  GI50: 1.41 µM (inactive)
IGROV-1
  GI50: 41.8 µM (inactive)
M14
  GI50: 21.5 µM (inactive)
NCI-H522
  GI50: 32.1 µM (inactive)
HCT-15
  GI50: 22.1 µM
SNB-19
  GI50: 25.5 µM (inactive)
MDA-MB-231
  GI50: 25.1 µM (inactive)
SF-268
  GI50: 54.7 µM (inactive)
COLO 205
  GI50: 14.9 µM (inactive)

## O=C(O)CCSCc1ccccc1
Hs-578T
  GI50: > 100 µM (inactive)
CAKI-1
  GI50: > 100 µM (inactive)
NCI-H226
  GI50: > 100 µM (inactive)
BT-549
  GI50: > 100 µM (inactive)
NCI/ADR-RES
  GI50: > 100 µM (inactive)
SN12C
  GI50: > 100 µM (inactive)
SK-MEL-28
  GI50: > 100 µM (inactive)
KM12
  GI50: > 100 µM (inactive)
PC-3
  GI50: > 100 µM (inactive)
T47D
  GI50: > 100 µM (inactive)
A498
  GI50: > 100 µM (inactive)
SF-295
  GI50: > 100 µM (inactive)
SNB-75
  GI50: > 100 µM (inactive)
MCF7
  GI50: > 100 µM (inactive)
RPMI-8226
  GI50: > 100 µM (inactive)
UACC-257
  GI50: > 100 µM (inactive)
LOX IMVI
  GI50: > 100 µM (inactive)
SK-OV-3
  GI50: > 100 µM (inactive)
SK-MEL-5
  GI50: > 100 µM (inactive)
SK-MEL-2
  GI50: > 100 µM (inactive)
HCC 2998
  GI50: > 100 µM (inactive)
SF-539
  GI50: > 100 µM (inactive)
OVCAR-8
  GI50: > 100 µM (inactive)
MDA-N
  GI50: > 100 µM (inactive)
OVCAR-4
  GI50: > 100 µM (inactive)
NCI-H460
  GI50: > 100 µM (inactive)
CCRF-CEM
  GI50: > 100 µM (inactive)
UACC-62
  GI50: > 100 µM (inactive)
ACHN
  GI50: > 100 µM (inactive)
UO-31
  GI50: > 100 µM (inactive)
EKVX
  GI50: > 100 µM (inactive)
OVCAR-3
  GI50: > 100 µM (inactive)
RXF 393
  GI50: > 100 µM (inactive)
K562
  GI50: > 100 µM (inactive)
SW-620
  GI50: > 100 µM (inactive)
NCI-H23
  GI50: > 100 µM (inactive)
OVCAR-5
  GI50: > 100 µM (inactive)
DU-145
  GI50: > 100 µM (inactive)
U-251
  GI50: > 100 µM (inactive)
A549
  GI50: > 100 µM (inactive)
MDA-MB-435
  GI50: > 100 µM (inactive)
HCT-116
  GI50: > 100 µM (inactive)
HT-29
  GI50: > 100 µM (inactive)
HOP-62
  GI50: > 100 µM (inactive)
MOLT-4
  GI50: > 100 µM (inactive)
786-0
  GI50: > 100 µM (inactive)
TK-10
  GI50: > 100 µM (inactive)
HL-60
  GI50: > 100 µM (inactive)
IGROV-1
  GI50: > 100 µM (inactive)
M14
  GI50: > 100 µM (inactive)
NCI-H522
  GI50: > 100 µM (inactive)
Malme-3M
  GI50: > 100 µM (inactive)
HCT-15
  GI50: > 100 µM
SNB-19
  GI50: > 100 µM (inactive)
MDA-MB-231
  GI50: > 100 µM (inactive)
SF-268
  GI50: > 100 µM (inactive)
COLO 205
  GI50: > 100 µM (inactive)

## Cc1nc2c(=O)n(-c3ccccc3)c3ccccc3c2o1
Hs-578T
  GI50: > 100 µM (inactive)
CAKI-1
  GI50: > 100 µM (inactive)
NCI-H226
  GI50: > 100 µM (inactive)
BT-549
  GI50: > 100 µM (inactive)
NCI/ADR-RES
  GI50: > 100 µM (inactive)
SN12C
  GI50: > 100 µM (inactive)
SK-MEL-28
  GI50: > 100 µM (inactive)
KM12
  GI50: > 100 µM (inactive)
PC-3
  GI50: > 100 µM (inactive)
T47D
  GI50: > 100 µM (inactive)
A498
  GI50: > 100 µM (inactive)
SF-295
  GI50: > 100 µM (inactive)
SNB-75
  GI50: > 100 µM (inactive)
MCF7
  GI50: > 100 µM (inactive)
RPMI-8226
  GI50: > 100 µM (inactive)
UACC-257
  GI50: > 100 µM (inactive)
LOX IMVI
  GI50: > 100 µM (inactive)
SK-OV-3
  GI50: > 100 µM (inactive)
SK-MEL-5
  GI50: > 100 µM (inactive)
SK-MEL-2
  GI50: > 100 µM (inactive)
HCC 2998
  GI50: > 100 µM (inactive)
SF-539
  GI50: > 100 µM (inactive)
OVCAR-8
  GI50: > 100 µM (inactive)
HOP-92
  GI50: > 100 µM (inactive)
MDA-N
  GI50: > 100 µM (inactive)
OVCAR-4
  GI50: > 100 µM (inactive)
NCI-H460
  GI50: > 100 µM (inactive)
CCRF-CEM
  GI50: > 100 µM (inactive)
UACC-62
  GI50: > 100 µM (inactive)
ACHN
  GI50: > 100 µM (inactive)
UO-31
  GI50: > 100 µM (inactive)
EKVX
  GI50: > 100 µM (inactive)
OVCAR-3
  GI50: > 100 µM (inactive)
RXF 393
  GI50: > 100 µM (inactive)
K562
  GI50: > 100 µM (inactive)
SW-620
  GI50: > 100 µM (inactive)
NCI-H23
  GI50: > 100 µM (inactive)
OVCAR-5
  GI50: > 100 µM (inactive)
DU-145
  GI50: > 100 µM (inactive)
U-251
  GI50: > 100 µM (inactive)
A549
  GI50: > 100 µM (inactive)
MDA-MB-435
  GI50: > 100 µM (inactive)
HCT-116
  GI50: > 100 µM (inactive)
HT-29
  GI50: > 100 µM (inactive)
HOP-62
  GI50: > 100 µM (inactive)
MOLT-4
  GI50: > 100 µM (inactive)
786-0
  GI50: > 100 µM (inactive)
TK-10
  GI50: > 100 µM (inactive)
HL-60
  GI50: > 100 µM (inactive)
IGROV-1
  GI50: > 100 µM (inactive)
M14
  GI50: > 100 µM (inactive)
Malme-3M
  GI50: > 100 µM (inactive)
HCT-15
  GI50: > 100 µM
SNB-19
  GI50: > 100 µM (inactive)
MDA-MB-231
  GI50: > 100 µM (inactive)
SF-268
  GI50: > 100 µM (inactive)
COLO 205
  GI50: > 100 µM (inactive)
